Reference: ChEMBL document CHEMBL5030558, “Optimization and Evaluation of Novel Antifungal Agents for the Treatment of Fungal Infection” (J Med Chem, 2021)
Values after ≈ are worked out from the molar mass of the structure shown. Active and inactive are the calls of the source. The rule behind the calls is not given here.

Experiments:
Nakaseomyces glabratus [1] = experiment: Induction of drug resistance in Candida glabrata BG2 assessed as increase in ECZ IC50 at 8 times IC50 after 4 days; type: functional, organism-based; conditions: BG2, 96 h
Cryptococcus neoformans [2] = experiment: Fungicidal activity against Cryptococcus neoformans H99 at 8 times of MIC after 24 hrs by time-kill kinetics assay; type: functional, organism-based
Candida albicans [3] = experiment: Induction of drug resistance in Candida albicans ATCC SC5314 assessed as increase in EZC IC50 at 8 time IC50 after 35 days; type: functional, organism-based; conditions: time 35.0 day
Trichophyton rubrum [4] = experiment: Ex vivo antifungal activity against Trichophyton rubrum KCCM60450 infected in human nail assessed as reduction in ATP level at 10 % w/w after 24 hrs; type: functional; design: scale not given: the % may be the effect or the level left
Nakaseomyces glabratus [5] = experiment: Induction of drug resistant in Candida glabrata BG2 assessed as increase in EZC IC50 at 16 times IC50; type: functional, organism-based
Candida albicans [6] = experiment: Induction of drug resistant in Candida albicans ATCC SC5314 assessed as increase in EZC IC50 at 16 times IC50; type: functional, organism-based
Candida albicans [7] = experiment: Induction of drug resistance in Candida albicans ATCC SC5314 assessed as increase in EZC IC50 at 8 time IC50 after 7 days; type: functional, organism-based; conditions: time 7.0 day
Aspergillus fumigatus = experiment: Antifungal activity against Aspergillus fumigatus AF293 assessed as reduction in fungal growth incubated for 48 hrs by CLSI based broth microdilution method; type: functional
Cytochrome P450 2C9 = Cytochrome P450 2C9 (Homo sapiens, UniProt P11712); experiment: Inhibition of CYP2C9 (unknown origin) relative to control; type: ADME
Cryptococcus neoformans [8] = experiment: Antifungal activity against Cryptococcus neoformans H99 assessed as reduction in fungal growth incubated for 72 hrs by CLSI based broth microdilution method; type: functional
Nakaseomyces glabratus [9] = experiment: Antifungal activity against Candida glabrata BG2 assessed as reduction in fungal growth incubated for 48 hrs by CLSI based broth microdilution method; type: functional
Candida albicans [10] = experiment: Antifungal activity against Candida albicans ATCC SC5314 assessed as reduction in fungal growth incubated for 48 hrs by CLSI based broth microdilution method; type: functional
Cytochrome P450 2D6 = Cytochrome P450 2D6 (Homo sapiens, UniProt P10635); experiment: Inhibition of CYP2D6 (unknown origin); type: ADME
Cytochrome P450 3A4 = Cytochrome P450 3A4 (Homo sapiens, UniProt P08684); experiment: Inhibition of CYP3A4 (unknown origin) relative to control; type: ADME
[11] = test system: Trichophyton mentagrophytes; experiment: Fungicidal activity against Trichophyton mentagrophytes KCCM60449 at 8 times after 24 hrs by time-kill kinetics assay; type: functional, organism-based
Trichophyton rubrum [12] = experiment: Fungicidal activity against Trichophyton rubrum KCCM60450 at 8 times after 24 hrs by time-kill kinetics assay; type: functional, organism-based
Nakaseomyces glabratus [13] = experiment: Induction of drug resistance in Candida glabrata BG2 assessed as increase in FCZ IC50 at 8 times IC50 after 23 days; type: functional, organism-based; conditions: BG2, 552 h
Candida albicans [14] = experiment: Induction of drug resistant in Candida albicans ATCC SC5314 assessed as increase in FCZ IC50 at 16 times IC50; type: functional, organism-based
Nakaseomyces glabratus [15] = experiment: Induction of drug resistant in Candida glabrata BG2 assessed as increase in FCZ IC50 at 16 times IC50; type: functional, organism-based
Candida albicans [16] = experiment: Induction of drug resistance in Candida albicans ATCC SC5314 assessed as increase in FCZ IC50 at 8 times IC50 measured after 5 to 22 days; type: functional, organism-based
Cryptococcus neoformans [17] = experiment: Fungicidal activity against Cryptococcus neoformans H99 at 8 times of MIC after 12 hrs by time-kill kinetics assay; type: functional, organism-based
CYP2D6 = CYP2D6 (Homo sapiens, UniProt P10635); experiment: Inhibition of CYP2D6 (unknown origin) at 10 uM relative to control; type: ADME
CYP3A4 = CYP3A4 (Homo sapiens, UniProt P08684); experiment: Inhibition of CYP3A4 (unknown origin) at 10 uM relative to control; type: ADME
[18] = Stability in human liver microsomes assessed as parent compound remaining after 30 mins; type: ADME, Microsome; conditions: read-out: Stability
CYP2C19 = CYP2C19 (Homo sapiens, UniProt P33261); experiment: Inhibition of CYP2C19 (unknown origin) at 10 uM relative to control; type: ADME
[19] = Stability in human plasma assessed as parent compound remaining after 30 to 120 mins; type: ADME, cell-free; conditions: time 30-120 min
[20] = Stability in rat liver microsomes assessed as parent compound remaining after 30 mins; type: ADME, Microsome; conditions: microsomes, 0.5 h
[21] = Stability in mouse liver microsomes assessed as parent compound remaining after 30 mins; type: ADME, Microsome; conditions: microsomes, 0.5 h
[22] = Stability in rat plasma assessed as parent compound remaining after 30 to 120 mins; type: ADME, cell-free; conditions: time 30-120 min

Cytochrome P450 3A4, sequence (P08684 whole entry): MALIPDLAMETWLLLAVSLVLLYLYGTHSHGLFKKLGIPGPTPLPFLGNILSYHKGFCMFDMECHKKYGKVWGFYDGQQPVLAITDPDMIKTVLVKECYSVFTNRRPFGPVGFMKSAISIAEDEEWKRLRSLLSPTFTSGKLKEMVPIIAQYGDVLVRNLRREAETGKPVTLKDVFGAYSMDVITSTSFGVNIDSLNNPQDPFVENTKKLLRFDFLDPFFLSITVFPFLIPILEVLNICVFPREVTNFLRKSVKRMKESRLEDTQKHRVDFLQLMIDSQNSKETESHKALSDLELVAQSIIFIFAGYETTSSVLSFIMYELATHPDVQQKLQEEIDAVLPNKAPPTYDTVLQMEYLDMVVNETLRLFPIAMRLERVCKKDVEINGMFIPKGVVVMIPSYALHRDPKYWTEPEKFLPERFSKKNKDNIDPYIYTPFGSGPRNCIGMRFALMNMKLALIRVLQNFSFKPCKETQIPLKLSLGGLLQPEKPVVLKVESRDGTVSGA
Cytochrome P450 2C9, sequence (P11712 whole entry): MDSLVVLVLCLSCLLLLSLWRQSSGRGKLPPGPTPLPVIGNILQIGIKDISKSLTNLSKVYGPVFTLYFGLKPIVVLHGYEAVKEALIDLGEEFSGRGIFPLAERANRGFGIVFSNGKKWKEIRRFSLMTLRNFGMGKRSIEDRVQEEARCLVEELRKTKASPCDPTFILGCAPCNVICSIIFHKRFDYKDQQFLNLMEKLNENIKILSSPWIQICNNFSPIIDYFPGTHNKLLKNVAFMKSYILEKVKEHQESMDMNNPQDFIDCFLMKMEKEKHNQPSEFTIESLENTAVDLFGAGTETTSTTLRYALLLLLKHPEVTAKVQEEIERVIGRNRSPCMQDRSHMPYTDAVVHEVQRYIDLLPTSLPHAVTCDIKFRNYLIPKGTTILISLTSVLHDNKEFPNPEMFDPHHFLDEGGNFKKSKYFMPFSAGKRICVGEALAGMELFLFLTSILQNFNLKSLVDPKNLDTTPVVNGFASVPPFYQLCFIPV
CYP2C19, sequence (P33261 whole entry): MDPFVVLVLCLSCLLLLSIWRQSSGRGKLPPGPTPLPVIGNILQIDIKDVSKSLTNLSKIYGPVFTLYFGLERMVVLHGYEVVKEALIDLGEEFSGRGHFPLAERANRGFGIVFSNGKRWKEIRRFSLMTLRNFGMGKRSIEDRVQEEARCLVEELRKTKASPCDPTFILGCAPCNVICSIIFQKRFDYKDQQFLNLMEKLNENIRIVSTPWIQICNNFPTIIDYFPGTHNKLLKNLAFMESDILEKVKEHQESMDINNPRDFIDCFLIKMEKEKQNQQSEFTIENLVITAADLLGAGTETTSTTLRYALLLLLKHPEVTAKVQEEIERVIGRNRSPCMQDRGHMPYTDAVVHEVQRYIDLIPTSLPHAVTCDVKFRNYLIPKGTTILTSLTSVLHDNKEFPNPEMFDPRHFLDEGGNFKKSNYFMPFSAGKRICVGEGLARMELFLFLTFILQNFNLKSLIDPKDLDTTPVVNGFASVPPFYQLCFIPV
CYP3A4, sequence (P08684 whole entry): as the sequence (P08684 whole entry) above
Cytochrome P450 2D6, sequence (P10635 whole entry): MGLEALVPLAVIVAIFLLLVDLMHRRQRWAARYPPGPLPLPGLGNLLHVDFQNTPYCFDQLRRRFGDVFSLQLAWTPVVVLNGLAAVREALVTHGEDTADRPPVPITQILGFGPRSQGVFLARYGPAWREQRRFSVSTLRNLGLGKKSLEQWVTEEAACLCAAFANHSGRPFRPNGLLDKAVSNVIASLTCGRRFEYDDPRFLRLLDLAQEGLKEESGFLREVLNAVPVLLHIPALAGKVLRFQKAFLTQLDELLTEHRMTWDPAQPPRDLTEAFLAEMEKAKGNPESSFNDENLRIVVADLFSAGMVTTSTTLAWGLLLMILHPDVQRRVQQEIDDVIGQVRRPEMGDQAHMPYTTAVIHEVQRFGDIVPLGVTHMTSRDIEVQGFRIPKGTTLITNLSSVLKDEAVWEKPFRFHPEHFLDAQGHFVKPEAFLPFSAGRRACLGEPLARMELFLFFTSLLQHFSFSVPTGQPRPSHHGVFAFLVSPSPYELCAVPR
CYP2D6, sequence (P10635 whole entry): as above

C=C1CCN([C@H](C)[C@](O)(Cn2cncn2)c2ccc(F)cc2F)CC1 [EFINACONAZOLE]
IC50 (Nakaseomyces glabratus [1]): 1 µg/mL (≈ 2.87 µM) | Activity (Cryptococcus neoformans [2]): inactive | Activity (Candida albicans [3]): Active | Activity (Trichophyton rubrum [4]): 31.9% | Activity (Nakaseomyces glabratus [5]): Active | Activity (Candida albicans [6]): Active | Activity (Candida albicans [7]): Active

CCCC(NC)C(=O)NCCc1ccc(-c2ccc(C(F)(F)F)cc2)cc1.Cl (racemic)
MIC (Aspergillus fumigatus): 32 µg/mL | inhibition (INH) (Cytochrome P450 2C9): Not Active | MIC (Cryptococcus neoformans [8]): 16 µg/mL | MIC (Nakaseomyces glabratus [9]): 32 µg/mL | MIC (Candida albicans [10]): 32 µg/mL | inhibition (INH) (Cytochrome P450 2D6): Active | inhibition (INH) (Cytochrome P450 3A4): Not Active

CN(C/C=C/C#CC(C)(C)C)Cc1cccc2ccccc12
Activity [11]: inactive | Activity (Trichophyton rubrum [12]): inactive

OC(Cn1cncn1)(Cn1cncn1)c1ccc(F)cc1F [FLUCONAZOLE]
IC50 (Nakaseomyces glabratus [13]): 64 µg/mL (≈ 209 µM) | Activity (Candida albicans [14]): Active | Activity (Nakaseomyces glabratus [15]): Active | Activity (Cryptococcus neoformans [2]): inactive | IC50 (Candida albicans [16]): 64 µg/mL (≈ 209 µM)

C[C@@H]1[C@H](O)[C@@H](C)/C=C/C=C/C=C/C=C/C=C/C=C/C=C/[C@H](O[C@@H]2O[C@H](C)[C@@H](O)[C@H](N)[C@@H]2O)C[C@@H]2O[C@](O)(C[C@@H](O)C[C@@H](O)[C@H](O)CC[C@@H](O)C[C@@H](O)CC(=O)O[C@H]1C)C[C@H](O)[C@H]2C(=O)O [AMPHOTERICIN B]
MIC (Aspergillus fumigatus): 1 µg/mL (≈ 1.08 µM) | Activity (Cryptococcus neoformans [17]): Active | MIC (Cryptococcus neoformans [8]): 0.25 µg/mL (≈ 0.271 µM) | MIC (Nakaseomyces glabratus [9]): 0.5 µg/mL (≈ 0.541 µM) | MIC (Candida albicans [10]): 0.25 µg/mL (≈ 0.271 µM)

CCCCC(N)C(=O)NCCc1ccc(-c2ccc(Cl)c(Cl)c2)cc1.Cl (racemic)
MIC (Aspergillus fumigatus): 4 µg/mL | inhibition at 10 µM (CYP2D6): > 70% | MIC (Cryptococcus neoformans [8]): 1 µg/mL | MIC (Nakaseomyces glabratus [9]): 4 µg/mL | MIC (Candida albicans [10]): 2 µg/mL | inhibition at 10 µM (CYP3A4): > 70% | remaining at 0.5 h [18]: > 85% | inhibition at 10 µM (CYP2C19): > 70%

CCCC(NC)C(=O)NCCc1ccc(-c2ccc(Cl)c(Cl)c2)cc1.Cl (racemic)
MIC (Aspergillus fumigatus): 8 µg/mL | Stability [19]: > 95% | MIC (Cryptococcus neoformans [8]): 4 µg/mL | MIC (Nakaseomyces glabratus [9]): 16 µg/mL | MIC (Candida albicans [10]): 16 µg/mL | Stability [20]: Unstable | Stability [21]: Unstable | remaining at 0.5 h [18]: > 85% | Stability [22]: > 95%

CCCCC(NC)C(=O)NCCc1ccc(-c2ccc(Cl)c(Cl)c2)cc1.Cl (racemic)
MIC (Aspergillus fumigatus): 8 µg/mL | MIC (Cryptococcus neoformans [8]): 4 µg/mL | MIC (Nakaseomyces glabratus [9]): 8 µg/mL | MIC (Candida albicans [10]): 8 µg/mL | Stability [20]: Unstable | Stability [21]: Unstable | remaining at 0.5 h [18]: > 85%

Cc1cc(C2CCCCC2)n(O)c(=O)c1 [CICLOPIROX]
Activity [11]: inactive | Activity (Trichophyton rubrum [12]): inactive | Activity (Trichophyton rubrum [4]): 24.21%

CCCC(N)C(=O)NCCc1ccc(OCc2ccc(C(F)(F)F)cc2)cc1.Cl (racemic)
MIC (Aspergillus fumigatus): 32 µg/mL | inhibition (INH) (Cytochrome P450 2C9): > 70% | MIC (Cryptococcus neoformans [8]): 16 µg/mL | MIC (Nakaseomyces glabratus [9]): 32 µg/mL | MIC (Candida albicans [10]): 16 µg/mL | inhibition (INH) (Cytochrome P450 3A4): > 70%
